Measurements reported in patent US20150111815A1, “NOVEL CYCLOSPORIN DERIVATIVES FOR THE TREATMENT AND PREVENTION OF VIRAL INFECTIONS” (S&T Global Inc., priority 2011, published 2015).
Read-outs that look alike come from different tables or passages of the source. *1 amine or outer side, *2 acyl side, *3 side chain or, on linkers, in order; H or OH if unused. Where a SMILES comes first, the peptide text is derived from it. [ ]: non-standard residue; d: D form. ξ: configuration not given here. MeBmt = C/C=C/C[C@@H](C)[C@@H](O)[C@H](NC)C(=O)O; X2 = C=CCOC(C)(C)C[C@@H](C(=O)[*:2])N(C)[*:1]; X1 = CCN(CC)CC[C@H](C(=O)[*:2])N(C)[*:1]; X3 = CN(C)CCC[C@H](C(=O)[*:2])N(C)[*:1]; dNMeDab(Me2) = CN[C@H](CCN(C)C)C(=O)O; NMeIle(3ξ) = CCC(C)[C@H](NC)C(=O)O; NMeL = CN[C@@H](CC(C)C)C(=O)O; NMeV = CN[C@H](C(=O)O)C(C)C; Abu = CC[C@H](N)C(=O)O

System: HCV replicon in cell line ET (luc-ubi-neo/ET), Huh7 human hepatoma cells
Experiment: HCV subgenomic replicon assay (luciferase end point)
Assay type: cell-based
Description: The anti-HCV activity of cyclosporine derivatives were evaluated in the HCV subgenomic replicon assay. The assay use the cell line ET (luc-ubi-neo/ET), which is a Huh7 human hepatoma cell line harboring an HCV replicon with a stable luciferase (Luc) reporter. HCV RNA replication was assessed by quantifying HCV replicon-derived luciferase activity. The antiviral activity of cyclosporine analogs were evaluated after drug treatment, the EC 50 and EC 90 were determined in subsequent assessments by using the luciferase end point (Krieger, N., et al., 2001, J. Virol. 75, 4614-4624; Pietschmann, T., et al., 2002, J. Virol. 76, 4008-4021; each of which is incorporated herein by reference).

[1] = Hepatitis C virus, Huh-7, read-out: Antiviral activity: IC50 (μM)
[2] = HCV replicon-derived luciferase activity, Huh7 ET cells, read-out: Antiviral activity: IC50

Compound | IC50 [1] [µM] | IC50 [2] [µM]
C/C=C/C[C@@H](C)[C@@H](O)[C@H]1C(=O)N[C@@H](CC)C(=O)N(C)[C@H](CCN(C)C)C(=O)N(C)[C@@H](CC(C)(C)O)C(=O)N[C@@H](C(C)C)C(=O)N(C)[C@@H](CC(C)C)C(=O)N[C@@H](C)C(=O)N[C@H](C)C(=O)N(C)[C@@H](CC(C)C)C(=O)N(C)[C@@H](CC(C)C)C(=O)N(C)[C@@H](C(C)C)C(=O)N1C [Example 20, [(R)-2-(N,N-Dimethylamino)ethyl-Sar]-3-[(γ-hydroxy)-NMeLeu]-4-cyclosporin] | < 0.25 | –
C=CCOC(C)(C)C[C@H]1C(=O)N[C@@H](C(C)C)C(=O)N(C)[C@@H](CC(C)C)C(=O)N[C@@H](C)C(=O)N[C@H](C)C(=O)N(C)[C@@H](CC(C)C)C(=O)N(C)[C@@H](CC(C)C)C(=O)N(C)[C@@H](C(C)C)C(=O)N(C)[C@@H]([C@H](O)[C@H](C)C/C=C/C)C(=O)N[C@@H](CC)C(=O)N(C)[C@H](CCN(C)C)C(=O)N1C [Example 22, [(R)-2-(N,N-Dimethylamino)ethyl-Sar]-3-[(γ-allyloxy)-NMeLeu]-4-cyclosporin] (cyclo(A[dA][NMeL][NMeL][NMeV][MeBmt][Abu][dNMeDab(Me2)][X2]V[NMeL])) | < 0.25 | –
C/C=C/C[C@@H](C)[C@@H](O)[C@H]1C(=O)N[C@@H](CC)C(=O)N(C)[C@H](CCCN(C)C)C(=O)N(C)[C@@H](CC(C)(C)OC)C(=O)N[C@@H](C(C)C)C(=O)N(C)[C@@H](CC(C)C)C(=O)N[C@@H](C)C(=O)N[C@H](C)C(=O)N(C)[C@@H](CC(C)C)C(=O)N(C)[C@@H](CC(C)C)C(=O)N(C)[C@@H](C(C)C)C(=O)N1C [Example 39, [(R)-3-(N,N-Dimethylamino)propyl-Sar]-3-[(γ-methoxy)-NMeLeu]-4-cyclosporin] | < 0.25 | –
C/C=C/C[C@@H](C)[C@@H](O)[C@H]1C(=O)N[C@@H](CC)C(=O)N(C)[C@H](CCN(CC)CC)C(=O)N(C)[C@@H](CC(C)(C)O)C(=O)N[C@@H](C(C)C)C(=O)N(C)[C@@H](CC(C)C)C(=O)N[C@@H](C)C(=O)N[C@H](C)C(=O)N(C)[C@@H](CC(C)C)C(=O)N(C)[C@@H](CC(C)C)C(=O)N(C)[C@@H](C(C)C)C(=O)N1C [Example 26, [(R)-2-(N,N-Diethylamino)ethyl-Sar]-3-[(γ-hydroxy)-NMeLeu]-4-cyclosporin] | < 0.25 | –
C/C=C/C[C@@H](C)[C@@H](O)[C@H]1C(=O)N[C@@H](CC)C(=O)N(C)[C@H](CCN(CC)CC)C(=O)N(C)[C@@H](C(C)C)C(=O)N[C@@H](C(C)C)C(=O)N(C)[C@@H](CC(C)C)C(=O)N[C@@H](C)C(=O)N[C@H](C)C(=O)N(C)[C@@H](CC(C)C)C(=O)N(C)[C@@H](CC(C)C)C(=O)N(C)[C@@H](C(C)C)C(=O)N1C [Example 29, [(R)-2-(N,N-Diethylamino)ethyl-Sar]-3-[NMeVal]-4-cyclosporin] (cyclo(A[dA][NMeL][NMeL][NMeV][MeBmt][Abu][X1][NMeV]V[NMeL])) | < 0.25 | –
C/C=C/C[C@@H](C)[C@@H](O)[C@H]1C(=O)N[C@@H](CC)C(=O)N(C)[C@H](CCN(CC)CC)C(=O)N(C)[C@@H](CC(C)(C)OC)C(=O)N[C@@H](C(C)C)C(=O)N(C)[C@@H](CC(C)C)C(=O)N[C@@H](C)C(=O)N[C@H](C)C(=O)N(C)[C@@H](CC(C)C)C(=O)N(C)[C@@H](CC(C)C)C(=O)N(C)[C@@H](C(C)C)C(=O)N1C [Example 27, [(R)-2-(N,N-Diethylamino)ethyl-Sar]-3-[(γ-methoxy)-NMeLeu]-4-cyclosporin] | < 0.25 | –
[(R)-2-(N,N-Dimethylamino)ethyl-Sar]-3-[NMeLeu]-4-cyclosporin | – | < 0.25
C/C=C/C[C@@H](C)[C@@H](O)[C@H]1C(=O)N[C@@H](CC)C(=O)N(C)[C@H](CCCN(C)C)C(=O)N(C)[C@@H](C(C)CC)C(=O)N[C@@H](C(C)C)C(=O)N(C)[C@@H](CC(C)C)C(=O)N[C@@H](C)C(=O)N[C@H](C)C(=O)N(C)[C@@H](CC(C)C)C(=O)N(C)[C@@H](CC(C)C)C(=O)N(C)[C@@H](C(C)C)C(=O)N1C (stereo partly drawn) [Example 45, [(R)-3-(N,N-Dimethylamino)propyl-Sar]-3-[NMeIle]-4-cyclosporin] (cyclo(A[dA][NMeL][NMeL][NMeV][MeBmt][Abu][X3][NMeIle(3ξ)]V[NMeL])) | < 0.25 | –
C/C=C/C[C@@H](C)[C@@H](O)[C@H]1C(=O)N[C@@H](CC)C(=O)N(C)[C@@H](CCN(C)C)C(=O)N(C)[C@@H](CC(C)(C)O)C(=O)N[C@@H](C(C)C)C(=O)N(C)[C@@H](CC(C)C)C(=O)N[C@@H](C)C(=O)N[C@H](C)C(=O)N(C)[C@@H](CC(C)C)C(=O)N(C)[C@@H](CC(C)C)C(=O)N(C)[C@@H](C(C)C)C(=O)N1C [Example 32, [(S)-2-(N,N-Dimethylamino)ethyl-Sar]-3-[(γ-hydroxy)-NMeLeu]-4-cyclosporin] | < 5 | –
C/C=C/C[C@@H](C)[C@@H](O)[C@H]1C(=O)N[C@@H](CC)C(=O)N(C)C(CCCN(C)C)C(=O)N(C)[C@@H](CC(C)C)C(=O)N[C@@H](C(C)C)C(=O)N(C)[C@@H](CC(C)C)C(=O)N[C@@H](C)C(=O)N[C@H](C)C(=O)N(C)[C@@H](CC(C)C)C(=O)N(C)[C@@H](CC(C)C)C(=O)N(C)[C@@H](C(C)C)C(=O)N1C (stereo partly drawn) [[(R,S)-3-(N,N-Dimethylamino)propyl-Sar]-3-cyclosporin] | – | < 1.5
[(R,S)-2-(N,N-Dimethylamino)ethyl-Sar]-3-cyclosporin | – | < 1.5
C/C=C/C[C@@H](C)[C@@H](O)[C@H]1C(=O)N[C@@H](CC)C(=O)N(C)[C@H](CCN(CC)CC)C(=O)N(C)[C@@H](C(C)CC)C(=O)N[C@@H](C(C)C)C(=O)N(C)[C@@H](CC(C)C)C(=O)N[C@@H](C)C(=O)N[C@H](C)C(=O)N(C)[C@@H](CC(C)C)C(=O)N(C)[C@@H](CC(C)C)C(=O)N(C)[C@@H](C(C)C)C(=O)N1C (stereo partly drawn) [Example 30, [(R)-2-(N,N-Diethylamino)ethyl-Sar]-3-[NMeIle]-4-cyclosporin] (cyclo(A[dA][NMeL][NMeL][NMeV][MeBmt][Abu][X1][NMeIle(3ξ)]V[NMeL])) | < 0.25 | –
C=CCOC(C)(C)C[C@H]1C(=O)N[C@@H](C(C)C)C(=O)N(C)[C@@H](CC(C)C)C(=O)N[C@@H](C)C(=O)N[C@H](C)C(=O)N(C)[C@@H](CC(C)C)C(=O)N(C)[C@@H](CC(C)C)C(=O)N(C)[C@@H](C(C)C)C(=O)N(C)[C@@H]([C@H](O)[C@H](C)C/C=C/C)C(=O)N[C@@H](CC)C(=O)N(C)[C@H](CCN(CC)CC)C(=O)N1C [Example 28, [(R)-2-(N,N-Diethylamino)ethyl-Sar]-3-[(γ-allyloxy)-NMeLeu]-4-cyclosporin] (cyclo(A[dA][NMeL][NMeL][NMeV][MeBmt][Abu][X1][X2]V[NMeL])) | < 0.25 | –
C/C=C/C[C@@H](C)[C@@H](O)[C@H]1C(=O)N[C@@H](CC)C(=O)N(C)[C@H](CCN(C)C)C(=O)N(C)[C@@H](C(C)CC)C(=O)N[C@@H](C(C)C)C(=O)N(C)[C@@H](CC(C)C)C(=O)N[C@@H](C)C(=O)N[C@H](C)C(=O)N(C)[C@@H](CC(C)C)C(=O)N(C)[C@@H](CC(C)C)C(=O)N(C)[C@@H](C(C)C)C(=O)N1C (stereo partly drawn) [Example 24, [(R)-2-(N,N-Dimethylamino)ethyl-Sar]-3-[NMeIle]-4-cyclosporin] (cyclo(A[dA][NMeL][NMeL][NMeV][MeBmt][Abu][dNMeDab(Me2)][NMeIle(3ξ)]V[NMeL])) | < 0.25 | –
C/C=C/C[C@@H](C)[C@@H](O)[C@H]1C(=O)N[C@@H](CC)C(=O)N(C)[C@H](CCN(C)C)C(=O)N(C)[C@@H](CC(C)(C)OC)C(=O)N[C@@H](C(C)C)C(=O)N(C)[C@@H](CC(C)C)C(=O)N[C@@H](C)C(=O)N[C@H](C)C(=O)N(C)[C@@H](CC(C)C)C(=O)N(C)[C@@H](CC(C)C)C(=O)N(C)[C@@H](C(C)C)C(=O)N1C [Example 21, [(R)-2-(N,N-Dimethylamino)ethyl-Sar]-3-[(γ-methoxy)-NMeLeu]-4-cyclosporin] | < 0.25 | –
C=CCOC(C)(C)C[C@H]1C(=O)N[C@@H](C(C)C)C(=O)N(C)[C@@H](CC(C)C)C(=O)N[C@@H](C)C(=O)N[C@H](C)C(=O)N(C)[C@@H](CC(C)C)C(=O)N(C)[C@@H](CC(C)C)C(=O)N(C)[C@@H](C(C)C)C(=O)N(C)[C@@H]([C@H](O)[C@H](C)C/C=C/C)C(=O)N[C@@H](CC)C(=O)N(C)[C@H](CCCN(C)C)C(=O)N1C [Example 41, [(R)-3-(N,N-Dimethylamino)propyl-Sar]-3-[(γ-allyloxy)-NMeLeu]-4-cyclosporin] (cyclo(A[dA][NMeL][NMeL][NMeV][MeBmt][Abu][X3][X2]V[NMeL])) | < 0.25 | –
C/C=C/C[C@@H](C)[C@@H](O)[C@H]1C(=O)N[C@@H](CC)C(=O)N(C)[C@H](CCCN(C)C)C(=O)N(C)[C@@H](CC(C)(C)O)C(=O)N[C@@H](C(C)C)C(=O)N(C)[C@@H](CC(C)C)C(=O)N[C@@H](C)C(=O)N[C@H](C)C(=O)N(C)[C@@H](CC(C)C)C(=O)N(C)[C@@H](CC(C)C)C(=O)N(C)[C@@H](C(C)C)C(=O)N1C [Example 37, [(R)-3-(N,N-Dimethylamino)propyl-Sar]-3-[(γ-hydroxy)-NMeLeu]-4-cyclosporin] | < 0.25 | –
[(S)-2-(N,N-Diethylamino)ethyl-Sar]-3-cyclosporin | – | < 5
C/C=C/C[C@@H](C)[C@@H](O)[C@H]1C(=O)N[C@@H](CC)C(=O)N(C)[C@H](CCN(CC)CC)C(=O)N(C)[C@@H](CC(C)C)C(=O)N[C@@H](C(C)C)C(=O)N(C)[C@@H](CC(C)C)C(=O)N[C@@H](C)C(=O)N[C@H](C)C(=O)N(C)[C@@H](CC(C)C)C(=O)N(C)[C@@H](CC(C)C)C(=O)N(C)[C@@H](C(C)C)C(=O)N1C [Example 25, [(R)-2-(N,N-Diethylamino)ethyl-Sar]-3-cyclosporin] | < 0.25 | –
